Several values for one entry are separate records, joined by “and”; a condition that tells them apart may be missing. Identical values can stand only once. Activity calls are given as the source filed them.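 Rule for the calls: active = signal-decreasing dose-response curve whose fitted half-maximal concentration is at or below twice the highest valid tested dose; inconclusive = flat fit at 30 to 70% signal loss, or poor fit; inactive = the rest.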
Assay: cell viability loss after compound exposure – 24 h, luminescence, cherry-picked samples, cytotoxicity control for PDI inhibitor project, dose response (AID 624285)
Conditions: NIH3T3/HeLa viability, CellTiter-Glo ATP luminescence, 24 h; at 35 µM (top of the series)

| SMILES | activity change, negative = cytotoxicity |
| --- | --- |
| Cc1ccc(N2CC(C(=O)N3CCCCCC3)CC2=O)cc1 (centres undefined) | -7.03% (inactive) |
| CN(CCC(=O)Nc1ccc(Br)cc1)Cc1ccccc1 | -5.93% (inactive) |
| CCOC(=O)c1ccc(NC(=O)C2(c3ccc(Cl)cc3)CCCC2)cc1 | -21.1% (inactive) |
| O=C(N/N=C/c1ccc(O)cc1)NC12CC3CC(CC(C3)C1)C2 | -14.1% (inactive) |
| Cc1noc(C)c1S(=O)(=O)Nc1ccc2c(c1)CC(=O)N([C@H](C)CO)C[C@H](C)[C@H](CN(C)S(=O)(=O)c1ccccc1)O2 | 3.77% (inactive) |
| COc1ccc(C(=O)Nc2ccccc2C(=O)NCc2ccco2)cc1 | -14.7% (inactive) |
| CN(C)C(=O)CSc1nnc([C@H](Cc2c[nH]c3ccccc23)NC(=O)OC(C)(C)C)o1 | -2.37% (inactive) |
| CC(=O)Nc1cccc(NC(=O)CCc2ccccc2)c1 | -12% (inactive) |
| O=C(CSc1n[nH]c(-c2ccccc2)n1)Nc1ccccc1O | -6.55% (inactive) |
| COc1cc2c(cc1OC)C1C(C(=O)Nc3ccccc3N3CCN(C)CC3)c3ccccc3C(=O)N1CC2 (centres undefined) | -11.8% (inactive) |
| CCN(CC)CCNC(=O)C(C(=O)c1ccccc1)n1ccccc1=O (centres undefined) | -1.54% (inactive) |
| O=C(c1cc([N+](=O)[O-])ccc1N1CCOCC1)N1CCN(c2ccc([N+](=O)[O-])cc2)CC1 | -16.5% (inactive) |
| O=C1CCC(=O)N1c1nc2nc(-c3ccccc3)cc(-c3ccccc3)n2n1 | -9.12% (inactive) |
| Cc1noc(C)c1S(=O)(=O)Nc1ccc2c(c1)CC(=O)N([C@H](C)CO)C[C@H](C)[C@H](CN(C)S(=O)(=O)c1ccc(F)cc1)O2 | 0.678% (inactive) and -3.98% (inactive) |
| O=C(c1ccco1)N1CCN(Cc2cc(=O)oc3cc(O)ccc23)CC1 | -18% (inactive) |
| COc1ccccc1N1CCN(C(=O)C(=O)N/N=C/c2cccc(O)c2)CC1 | -8.29% (inactive) |
| C[C@@H]1CN([C@H](C)CO)C(=O)c2cc(NC(=O)Cc3cn(C)c4ccccc34)ccc2O[C@@H]1CN(C)S(=O)(=O)c1ccc(F)cc1 | -8.29% (inactive) |
| Cc1noc(C)c1S(=O)(=O)Nc1ccc2c(c1)CC(=O)N([C@H](C)CO)C[C@@H](C)[C@@H](CN(C)S(=O)(=O)c1ccc(F)cc1)O2 | -0.682% (inactive) |
| COc1ccc(C2c3ccc(O)cc3Oc3ncn(CCCO)c(=N)c32)cc1 (centres undefined) | -8.08% (inactive) |
| COc1ccc2c(CC(=O)OCC(=O)N(C)c3c(N)n(Cc4ccccc4)c(=O)[nH]c3=O)coc2c1 | -8.77% (inactive) |
| CN(C)S(=O)(=O)c1ccc(Cl)c(NC(=O)CSc2nnnn2-c2ccc(O)cc2)c1 | -11.7% (inactive) |
| C[C@@H](C(=O)NCc1ccccc1)N1C(=O)C2CC=CCC2C1=O (some centres undefined) | -8.35% (inactive) |
| COCC(=O)N(C)C1(c2nnnn2CCOC(=O)Nc2ccc(Cl)cc2)CCCCC1 | -4.92% (inactive) |
| C[C@@H](CN1C2=NC[C@H](Cc3ccc(O)cc3)N2C[C@H]1Cc1ccc(O)cc1)NC(=O)CCC1CCCCC1 | -8.59% (inactive) |
| Cc1c(O)ccc2c(CC(=O)N[C@@H](Cc3c[nH]c4ccccc34)C(=O)O)cc(=O)oc12 | -8.56% (inactive) |
| O=C(Cn1nnc2ccccc21)OCC(=O)c1ccccc1 | -11.3% (inactive) |
| CC1(C(=O)Nc2cccc3c2CCCC3)CCN1C(=O)c1cccc(F)c1 (centres undefined) | -14.8% (inactive) |

| SMILES | activity change, negative = cytotoxicity |
| --- | --- |
| O=C(N/N=C/c1cccc([N+](=O)[O-])c1)c1cnccn1 | -7.37% (inactive) |
| CC(C)c1ccc(Nc2nc(CC(=O)O)cs2)cc1 | -4.01% (inactive) |
| Cc1cc(NC(=O)CSc2[nH]c(=O)cc(C(F)(F)F)c2C#N)no1 | -3.53% (inactive) |
| CCC(=O)Nc1ccc(-c2cc3ccccc3oc2=O)cc1 | -7.54% (inactive) |
| Cc1cc(C)c2c(=O)n3c(nc2c1)C(Cc1ccc(O)cc1)NC(=O)c1cccnc1-3 (centres undefined) | -10.3% (inactive) |
| O=C(C[C@H]1C[C@H](C(=O)N2CCCCC2)[C@@]2(CCc3ccccc3)c3[nH]c4cc(-c5ccco5)ccc4c3CCN2C1=O)NCCC1=CCCCC1 | -13% (inactive) |
| O=C1CC(C(=O)N2CCc3ccccc32)CN1c1ccc(F)cc1 (centres undefined) | -10.7% (inactive) |
| C[C@H](CO)N1C[C@H](C)[C@@H](CN(C)Cc2ccc(Oc3ccccc3)cc2)Oc2c(NS(C)(=O)=O)cccc2C1=O | 0.644% (inactive) |
| COc1ccc(C2C(C(C)=O)=C(O)C(=O)N2CCc2c[nH]c3ccccc23)cc1OC (centres undefined) | -3.29% (inactive) |
| COCc1[nH][nH]c(=O)c1C=Nc1ccc(F)cc1F | -11.4% (inactive) |
| O=C(c1c(O)cc(O)cc1O)C1c2c(cc(O)c3c2O[C@H](c2ccc(O)cc2)[C@@H](O)C3)OC1c1ccc(O)cc1 (some centres undefined) | -5.6% (inactive) |
| O=C1/C(=C\c2ccc(O)cc2)CCC1CNc1ccc(Cl)cc1 (centres undefined) | -7.39% (inactive) |
| C[C@]12CC[C@@H]3c4ccc(O[C@@H]5O[C@H](C(=O)O)[C@@H](O)[C@H](O)[C@H]5O)cc4CC[C@H]3[C@@H]1C[C@@H](O)[C@@H]2O | -6.13% (inactive) |
| CCOc1ncccc1C(=O)OCC(=O)Nc1ccc(C(C)C)cc1 | -7.86% (inactive) |
| O=C(CN1C(=O)NC2(CCCC2)C1=O)Nc1ccc(C(F)(F)F)cc1 | -9.2% (inactive) |
| C[C@@H]1O[C@@H](OC[C@H]2O[C@@H](Oc3c(-c4ccc(O)c(O)c4)oc4cc(O)cc(O)c4c3=O)[C@H](O)[C@@H](O)[C@@H]2O)[C@H](O)[C@H](O)[C@H]1O | -2.56% (inactive) |
| O=C(O)CCc1ccc(-c2cccs2)n1NC(=O)c1ccco1 | 0.695% (inactive) |
| COc1cccc(/C=C2\CCCCC2=O)c1 | -7.65% (inactive) |
| COc1cc(C(=O)N2CCN(C/C=C/c3ccccc3)CC2)cc(OC)c1OC | -12% (inactive) |
| O=C(Cc1ccccc1)Nc1cccc(C(=O)N/N=C/c2ccco2)c1 | -4.58% (inactive) |
| COc1cc(C2C(C(C)=O)=C(O)C(=O)N2CCc2c[nH]c3ccccc23)ccc1O (centres undefined) | -5.75% (inactive) |
| S=C(NCCc1ccccc1)Nc1ccccn1 | -3.47% (inactive) |
| CC1Cc2ccccc2N1C(=O)CSc1nnc2sc3ccccc3n12 (centres undefined) | -7.39% (inactive) |
| CCC(=O)N1CCc2cc(S(=O)(=O)CCC(=O)NCc3ccco3)ccc21 | -2.4% (inactive) |
| COCC(=O)NC1(c2nnnn2CCOC(=O)Nc2ccc(Cl)cc2)CCCCC1 | -7.94% (inactive) |
| Cc1ccc(-n2ncc3c(=O)[nH]c(SCC(=O)N4CCCc5ccccc54)nc32)cc1 | -1.87% (inactive) |
| C[C@H](CO)N1C[C@H](C)[C@@H](CN(C)S(=O)(=O)c2ccc(F)cc2)Oc2ccc(NC(=O)Cc3cn(C)c4ccccc34)cc2C1=O | -0.991% (inactive) |

Source: PubChem BioAssay AID624285 (Broad Institute, 2012)
